Key:
Psdm. aerug. F 41 = experiment: MIC, test tube series dilution test, Psdm. aerug. F 41; assay type: cell-based, Pseudomonas aeruginosa; conditions: for MIC: Psdm. aerug. F 41, 24 hours, 37°C; for Activity against Psdm. aerug. F 41 (minimum inhibitory concentration): 24 hours' incubation
Enterococcus 9790 = experiment: MIC, test tube series dilution test, Enterococcus 9790; assay type: cell-based; conditions: 24 hours, 37°C
Klebsiella K 10 = experiment: MIC, test tube series dilution test, Klebsiella K 10; assay type: cell-based; conditions: 24 hours, 37°C
E. coli C 165 = experiment: MIC, test tube series dilution test, E. coli C 165; assay type: cell-based; conditions: 24 hours, 37°C
Staph. aureus 133 = assay type: cell-based, Staphylococcus aureus; conditions: for MIC: Staph. aureus 133, 24 hours, 37°C; for Activity against Staph. aureus 133 (minimum inhibitory concentration): 24 hours' incubation
Proteus vulg. 1017 = assay type: cell-based, Proteus vulgaris; conditions: for MIC: Proteus 1017, 24 hours, 37°C; for Activity against Proteus vulg. 1017 (minimum inhibitory concentration): 24 hours' incubation
Klebsiella 63 = experiment: MIC, test tube series dilution test, Klebsiella 63; assay type: cell-based; conditions: for MIC: Klebsiella 63, 24 hours, 37°C; for Activity against Klebs. 63 (minimum inhibitory concentration): 24 hours' incubation
Staph. aureus 1756 = experiment: MIC, test tube series dilution test, Staph. aureus 1756; assay type: cell-based, Staphylococcus aureus; conditions: for MIC: Staph. aureus 1756, 24 hours, 37°C
E. coli 183/58 = experiment: MIC, test tube series dilution test, E. coli 183/58; assay type: cell-based; conditions: 24 hours, 37°C
E. coli 14 = assay type: cell-based; conditions: for MIC: E. coli 14, 24 hours, 37°C; for Activity against E. coli 14 (minimum inhibitory concentration): 24 hours' incubation
Proteus morg. 932 = experiment: MIC, test tube series dilution test, Proteus morg. 932; assay type: cell-based; conditions: 24 hours, 37°C
E. coli A 261 = experiment: MIC, test tube series dilution test, E. coli A 261; assay type: cell-based; conditions: 24 hours, 37°C
Psdm. aerug. Walter = experiment: MIC, test tube series dilution test, Psdm. aerug. Walter; assay type: cell-based, Pseudomonas aeruginosa; conditions: for MIC: Psdm. aerug. Walter, 24 hours, 37°C; for Activity against Psdm. aerug. Walter (minimum inhibitory concentration): 24 hours' incubation

Structure (SMILES)	MIC (Psdm. aerug. F 41)	MIC (Enterococcus 9790)	MIC (Klebsiella K 10) [U/ml]	MIC (Staph. aureus 133) [U/ml]	MIC (E. coli 14)	MIC (Proteus morg. 932) [U/ml]	MIC (E. coli A 261)	MIC (Psdm. aerug. Walter)	also measured
CC1(C)S[C@@H]2[C@H](NC(=O)[C@H](NC(=O)c3cc(NC(=O)C4CC4)ccc3Cl)c3ccccc3)C(=O)N2[C@H]1C(=O)O [Example 53]	128-256 U/ml	2-4 U/ml	> 256	< 1	32 U/ml	–	–	–	MIC (E. coli C 165): 128-256 U/ml; MIC (Proteus vulg. 1017): > 256 U/ml; MIC (Klebsiella 63): 128-256 U/ml; MIC (Staph. aureus 1756): 32-64 U/ml; MIC (E. coli 183/58): 128-256 U/ml
CC1(C)S[C@@H]2[C@H](NC(=O)[C@H](NC(=O)c3ccc(NC(=O)C4(O)CC4)cc3)c3ccccc3)C(=O)N2[C@H]1C(=O)O [Example 2, sodium D(-)-α-(4-cyclopropanol-1-carbonyl-aminobenzoylamino)-benzylpenicillin]	–	–	–	< 1	–	> 256	> 256 U/ml	> 256 U/ml	–
CC1(C)S[C@@H]2[C@H](NC(=O)[C@H](NC(=O)c3ccc(NC(=O)c4ccc(C(F)(F)F)cc4)cc3)c3ccccc3)C(=O)N2[C@H]1C(=O)O [Example 23]	–	–	–	< 1	< 1 U/ml	–	–	–	MIC (E. coli 183/58): < 1 U/ml
CNc1ccc(C(=O)N[C@@H](C(=O)N[C@@H]2C(=O)N3[C@@H]2SC(C)(C)[C@@H]3C(=O)O)c2ccccc2)cc1 [Example 43]	–	–	–	< 1	~ 16 U/ml	> 256	> 256 U/ml	> 256 U/ml	–
CC(C)(CN=[N+]=[N-])C(=O)Nc1ccc(C(=O)N[C@@H](C(=O)N[C@@H]2C(=O)N3[C@@H]2SC(C)(C)[C@@H]3C(=O)O)c2ccccc2)cc1 [Example 39]	–	–	–	< 1	–	–	> 256 U/ml	–	MIC (Staph. aureus 1756): ~ 64 U/ml
CC1(C)S[C@@H]2[C@H](NC(=O)[C@H](NC(=O)CSc3ccc(NC(=O)C4CCC4)cc3)c3ccccc3)C(=O)N2[C@H]1C(=O)O [Example 61]	–	~ 16 U/ml	–	< 1	–	> 256	> 256 U/ml	> 256 U/ml	–
CC1(C)S[C@@H]2[C@H](NC(=O)[C@H](NC(=O)Cc3ccc(NC(=O)C4CCC4)cc3)c3ccccc3)C(=O)N2[C@H]1C(=O)O [Example 76, sodium D(-)-α-[(4-cyclobutanecarbonylaminophenyl)-acetamido]-benzylpenicillin]	> 256 U/ml	~ 16 U/ml	–	< 1	< 4 U/ml	> 256	> 256 U/ml	> 256 U/ml	–
CC1(C)S[C@@H]2[C@H](NC(=O)[C@H](NC(=O)c3ccc(NC=O)c(NC=O)c3)c3ccccc3)C(=O)N2[C@H]1C(=O)O [Example 74]	–	–	> 256	< 1	–	–	–	–	–
COCC(=O)Nc1ccc(C(=O)N[C@@H](C(=O)N[C@@H]2C(=O)N3[C@@H]2SC(C)(C)[C@@H]3C(=O)O)c2ccccc2)cc1 [Example 42]	–	~ 4 U/ml	> 256	< 1	–	–	–	–	MIC (Proteus vulg. 1017): > 256 U/ml
CC1(C)S[C@@H]2[C@H](NC(=O)[C@H](NC(=O)c3ccc(NC(=O)Nc4ccc(F)cc4)cc3)c3ccccc3)C(=O)N2[C@H]1C(=O)O [Example 46]	–	~ 4 U/ml	–	< 1	< 1 U/ml	–	–	–	MIC (E. coli C 165): ~ 4 U/ml
CC1(C)S[C@@H]2[C@H](NC(=O)[C@H](NC(=O)c3ccccc3NC(=O)C3CCC3)c3ccccc3)C(=O)N2[C@H]1C(=O)O [Example 50]	–	–	> 256	< 1	–	–	–	–	–
CNC(=O)Nc1ccc(C(=O)N[C@@H](C(=O)N[C@@H]2C(=O)N3[C@@H]2SC(C)(C)[C@@H]3C(=O)O)c2ccccc2)cc1 [Example 44]	~ 64 U/ml	4 U/ml	256	< 1	~ 8 U/ml	–	–	–	MIC (E. coli C 165): 16 U/ml; MIC (Proteus vulg. 1017): > 256 U/ml; MIC (Klebsiella 63): 128 U/ml; MIC (Staph. aureus 1756): 64 U/ml
CC1(C)S[C@@H]2[C@H](NC(=O)[C@H](NC(=O)c3ccc(NC(=O)C4CCCC4)cc3O)c3ccccc3)C(=O)N2[C@H]1C(=O)O [Example 77, sodium D(-)-α-(4-cyclopentanecarbonylamino-2-hydroxybenzoylamino)benzylpenicillin]	–	–	–	–	–	–	–	–	Activity against Klebs. 63 (minimum inhibitory concentration) (Klebsiella 63): 32-64 U/ml; Activity against Staph. aureus 1756 (minimum inhibitory concentration) (Staph. aureus 1756; 24 hours' incubation): 32-64 U/ml; Activity against Psdm. aerug. Walter (minimum inhibitory concentration) (Psdm. aerug. Walter): 8-16 U/ml; Activity against E. coli 14 (minimum inhibitory concentration) (E. coli 14): 2-4 U/ml
CC1(C)S[C@@H]2[C@H](NC(=O)[C@H](NC(=O)c3ccc(NC(=O)C4CCCC4)cc3)c3ccc(O)cc3)C(=O)N2[C@H]1C(=O)O [Example 81]	–	–	–	–	–	–	–	–	Activity against Psdm. aerug. F 41 (minimum inhibitory concentration) (Psdm. aerug. F 41): 32-64 U/ml; Activity against Staph. aureus 133 (minimum inhibitory concentration) (Staph. aureus 133): < 1 U/ml; Activity against Proteus vulg. 1017 (minimum inhibitory concentration) (Proteus vulg. 1017): > 256 U/ml; Activity against Klebs. 63 (minimum inhibitory concentration) (Klebsiella 63): 128-256 U/ml; Activity against E. coli 14 (minimum inhibitory concentration) (E. coli 14): 4-8 U/ml
COc1cc(C(=O)Nc2ccc(C=CC(=O)N[C@@H](C(=O)N[C@@H]3C(=O)N4[C@@H]3SC(C)(C)[C@@H]4C(=O)O)c3ccccc3)cc2)cc(OC)c1OC [Example 79, sodium D(-)-α-[4-(3,4,5-trimethoxybenzoylamino-cinnamoylamino)]-benzylpenicillin]	–	–	–	–	–	–	–	–	Activity against Psdm. aerug. F 41 (minimum inhibitory concentration) (Psdm. aerug. F 41): 8-16 U/ml; Activity against Staph. aureus 133 (minimum inhibitory concentration) (Staph. aureus 133): < 1 U/ml; Activity against Proteus vulg. 1017 (minimum inhibitory concentration) (Proteus vulg. 1017): 128-256 U/ml; Activity against Klebs. 63 (minimum inhibitory concentration) (Klebsiella 63): 32-64 U/ml; Activity against E. coli 14 (minimum inhibitory concentration) (E. coli 14): 1-2 U/ml
CC1(C)S[C@@H]2[C@H](NC(=O)[C@H](NC(=O)CNC(=O)c3ccc(N)cc3)c3ccccc3)C(=O)N2[C@H]1C(=O)O [Example 70]	–	–	–	< 1	–	> 256	> 256 U/ml	> 256 U/ml	–
CNC(=S)Nc1ccc(C(=O)N[C@@H](C(=O)N[C@@H]2C(=O)N3[C@@H]2SC(C)(C)[C@@H]3C(=O)O)c2ccccc2)cc1 [Example 47]	64 U/ml	4 U/ml	256	< 1	16 U/ml	> 256	> 256 U/ml	> 256 U/ml	MIC (E. coli C 165): 32 U/ml; MIC (Proteus vulg. 1017): 32 U/ml; MIC (Klebsiella 63): 128 U/ml; MIC (Staph. aureus 1756): 64 U/ml
COc1cc(C=CC(=O)Nc2ccc(C(=O)N[C@@H](C(=O)N[C@@H]3C(=O)N4[C@@H]3SC(C)(C)[C@@H]4C(=O)O)c3ccccc3)cc2)cc(OC)c1OC [Example 78, sodium D(-)-α-[4-(3,4,5-trimethoxycinnamoylamino-benzoylamino)]-benzylpenicillin]	–	–	–	–	–	–	–	–	Activity against Proteus vulg. 1017 (minimum inhibitory concentration) (Proteus vulg. 1017): 128-256 U/ml; Activity against Klebs. 63 (minimum inhibitory concentration) (Klebsiella 63): 32-64 U/ml; Activity against Psdm. aerug. Walter (minimum inhibitory concentration) (Psdm. aerug. Walter): 32-64 U/ml; Activity against E. coli 14 (minimum inhibitory concentration) (E. coli 14): 2-4 U/ml
Cc1cc(C)cc(C(=O)Nc2ccc(C(=O)N[C@@H](C(=O)N[C@@H]3C(=O)N4[C@@H]3SC(C)(C)[C@@H]4C(=O)O)c3ccccc3)cc2)c1 [Example 21]	~ 16 U/ml	~ 4 U/ml	–	< 1	< 1 U/ml	–	~ 256 U/ml	–	MIC (E. coli 183/58): ~ 1 U/ml
CC1(C)S[C@@H]2[C@H](NC(=O)[C@H](NC(=O)c3ccccc3NC(=O)C3CC3)c3ccccc3)C(=O)N2[C@H]1C(=O)O [Example 49]	< 256 U/ml	–	> 256	< 1	–	–	–	–	MIC (Klebsiella 63): > 256 U/ml
CC1(C)S[C@@H]2[C@H](NC(=O)[C@H](NC(=O)CSc3ccc(NC=O)cc3)c3ccccc3)C(=O)N2[C@H]1C(=O)O [Example 59]	> 256 U/ml	–	–	< 1	~ 4 U/ml	> 256	> 256 U/ml	> 256 U/ml	–
CC1(C)S[C@@H]2[C@H](NC(=O)[C@H](NC(=O)CNC(=O)c3ccc(NC(=O)C4CC4)cc3)c3ccccc3)C(=O)N2[C@H]1C(=O)O [Example 64]	256 U/ml	8 U/ml	128	–	–	> 256	> 256 U/ml	–	MIC (E. coli C 165): 32 U/ml; MIC (Proteus vulg. 1017): 64 U/ml; MIC (Klebsiella 63): 64 U/ml; MIC (Staph. aureus 1756): 16 U/ml; MIC (E. coli 183/58): 64 U/ml
CC1(C)S[C@@H]2[C@H](NC(=O)[C@H](NC(=O)c3ccc(NC(=O)c4cc(Cl)cc(Cl)c4)cc3)c3ccccc3)C(=O)N2[C@H]1C(=O)O [Example 20]	–	~ 4 U/ml	–	< 1	< 1 U/ml	–	~ 256 U/ml	~ 4 U/ml	MIC (Proteus vulg. 1017): ~ 4 U/ml; MIC (Staph. aureus 1756): ~ 4 U/ml
CC1(C)S[C@@H]2[C@H](NC(=O)[C@H](NC(=O)c3ccc(N)cc3)c3ccccc3)C(=O)N2[C@H]1C(=O)O [Example 34, sodium D(-)-α-(4-amino-benzoylamino)-benzylpenicillin]	64 U/ml	~ 4 U/ml	256	< 1	~ 16 U/ml	> 256	> 256 U/ml	–	MIC (E. coli C 165): 32 U/ml; MIC (Proteus vulg. 1017): 128 U/ml; MIC (Klebsiella 63): 128 U/ml; MIC (Staph. aureus 1756): 32 U/ml

From US4001218A, “Penicillins” (Bayer Aktiengesellschaft, priority 1972, dated 1977)
